≈ marks a conversion by molar mass, not a printed value.

Assay [1] deals with Staphylococcus aureus. The assay can be described thus: In vitro antimicrobial activity against Staphylococcus aureus X1. Type of assay: functional.
Assay [2] relates to Haemophilus influenzae. Nature of the assay: In vitro antimicrobial activity against Haemophilus influenzae. Type of assay: functional.
The test system of assay [3] is Streptococcus pneumoniae. The assay can be described thus: In vitro antimicrobial activity against Streptococcus pneumoniae. Type of assay: functional.
For assay [4], the system named is Enterococcus faecium. The assay can be described thus: In vitro antimicrobial activity against Streptococcus faecium X66. Format: functional, streptococcus fae-cium.
The test system of assay [5] is Staphylococcus epidermidis. The assay can be described thus: In vitro antimicrobial activity against Staphylococcus epidermidis EPI1. Type of assay: functional.
Assay [6] concerns Streptococcus pyogenes. Nature of the assay: In vitro antimicrobial activity against Streptococcus pyogenes C203. Type of assay: functional.

As to `CC[C@H]1OC(=O)C[C@@H](O)[C@H](C)[C@@H](O[C@@H]2O[C@H](C)[C@@H](O)[C@H](N(C)C)[C@H]2O)[C@@H](CCOC(C)=O)C[C@@H](C)C(=O)/C=C/C(C)=C/[C@@H]1CO[C@@H]1O[C@H](C)[C@@H](O)[C@@H](OC)[C@H]1OC`, the MIC in assay [1] was determined as 0.5 µg/mL (≈ 0.613 µM); in assay [2] it was 16 µg/mL (≈ 19.6 µM); in assay [3], 2 µg/mL (≈ 2.45 µM); in assay [4] it was 8 µg/mL (≈ 9.8 µM); in assay [5], 0.25 µg/mL (≈ 0.306 µM); in assay [6] it was 0.12 µg/mL (≈ 0.147 µM).
Regarding `CC[C@H]1OC(=O)C[C@@H](O)[C@H](C)[C@@H](O[C@@H]2O[C@H](C)[C@@H](O)[C@H](N(C)C)[C@H]2O)[C@@H](CCI)C[C@@H](C)C(=O)/C=C/C(C)=C/[C@@H]1CO[C@@H]1O[C@H](C)[C@@H](O)[C@@H](O)[C@H]1OC`, the MIC in assay [1] amounted to 0.5 µg/mL (≈ 0.575 µM); in assay [2], 32 µg/mL (≈ 36.8 µM); in assay [3], 2 µg/mL (≈ 2.3 µM); in assay [4], 16 µg/mL (≈ 18.4 µM); in assay [5], 0.5 µg/mL (≈ 0.575 µM); in assay [6], 0.5 µg/mL (≈ 0.575 µM).
Turning to `CC[C@H]1OC(=O)C[C@@H](O)[C@H](C)[C@@H](O[C@@H]2O[C@H](C)[C@@H](O[C@H]3C[C@@](C)(O)[C@@H](O)[C@H](C)O3)[C@H](N(C)C)[C@H]2O)[C@@H](CCSc2ccccc2)C[C@@H](C)C(=O)/C=C/C(C)=C/[C@@H]1CO[C@@H]1O[C@H](C)[C@@H](O)[C@@H](OC)[C@H]1OC`, the MIC in assay [1] was 1 µg/mL (≈ 0.99 µM); in assay [2], more than 128 µg/mL; in assay [3] it was 64 µg/mL (≈ 63.3 µM); in assay [4], more than 128 µg/mL; in assay [5] it was 2 µg/mL (≈ 1.98 µM); in assay [6] it was 4 µg/mL (≈ 3.96 µM).
Regarding `CC[C@H]1OC(=O)C[C@@H](O)[C@H](C)[C@@H](O[C@@H]2O[C@H](C)[C@@H](O[C@H]3C[C@@](C)(O)[C@@H](O)[C@H](C)O3)[C@H](N(C)C)[C@H]2O)[C@@H](CCF)C[C@@H](C)C(=O)/C=C/C(C)=C/[C@@H]1CO[C@@H]1O[C@H](C)[C@@H](O)[C@@H](OC)[C@H]1OC`, the MIC was 1 µg/mL (≈ 1.09 µM) in assay [1]; more than 128 µg/mL in assay [2]; 64 µg/mL (≈ 69.6 µM) in assay [3]; more than 128 µg/mL in assay [4]; 1 µg/mL (≈ 1.09 µM) in assay [5]; 4 µg/mL (≈ 4.35 µM) in assay [6].
For `CC[C@H]1OC(=O)C[C@@H](O)[C@H](C)[C@@H](O[C@@H]2O[C@H](C)[C@@H](O[C@H]3C[C@@](C)(O)[C@@H](O)[C@H](C)O3)[C@H](N(C)C)[C@H]2O)[C@@H](CCOc2ccc(OC)cc2)C[C@@H](C)C(=O)/C=C/C(C)=C/[C@@H]1CO[C@@H]1O[C@H](C)[C@@H](O)[C@@H](OC)[C@H]1OC`, the MIC in assay [1] amounted to 0.5 µg/mL (≈ 0.488 µM); in assay [2], 128 µg/mL (≈ 125 µM); in assay [3] it was 8 µg/mL (≈ 7.81 µM); in assay [4] it was 128 µg/mL (≈ 125 µM); in assay [5] it was 2 µg/mL (≈ 1.95 µM); in assay [6] it was 1 µg/mL (≈ 0.976 µM).
As to `CC[C@H]1OC(=O)C[C@@H](O)[C@H](C)[C@@H](O[C@@H]2O[C@H](C)[C@@H](O[C@H]3C[C@@](C)(O)[C@@H](O)[C@H](C)O3)[C@H](N(C)C)[C@H]2O)[C@@H](CCNCCc2ccccc2)C[C@@H](C)C(=O)/C=C/C(C)=C/[C@@H]1C`, the MIC is 4 µg/mL (≈ 4.81 µM) in assay [1]; 64 µg/mL (≈ 77 µM) in assay [2]; 1 µg/mL (≈ 1.2 µM) in assay [3]; 8 µg/mL (≈ 9.63 µM) in assay [4]; 4 µg/mL (≈ 4.81 µM) in assay [5]; 2 µg/mL (≈ 2.41 µM) in assay [6].
Regarding `CC[C@H]1OC(=O)C[C@@H](O)[C@H](C)[C@@H](O[C@@H]2O[C@H](C)[C@@H](O[C@H]3C[C@@](C)(O)[C@@H](O)[C@H](C)O3)[C@H](N(C)C)[C@H]2O)[C@@H](CCN2CCCCCCC2)C[C@@H](C)C(=O)/C=C/C(C)=C/[C@@H]1CO[C@@H]1O[C@H](C)[C@@H](O)[C@@H](O)[C@H]1OC`, the MIC in assay [1] is 4 µg/mL (≈ 4 µM); in assay [2], more than 128 µg/mL; in assay [3] it was 16 µg/mL (≈ 16 µM); in assay [4], 64 µg/mL (≈ 64 µM); in assay [5], 8 µg/mL (≈ 8.01 µM); in assay [6], 2 µg/mL (≈ 2 µM).
Take `CC[C@H]1OC(=O)C[C@@H](O)[C@H](C)[C@@H](O[C@@H]2O[C@H](C)[C@@H](O)[C@H](N(C)C)[C@H]2O)[C@@H](CCO)C[C@@H](C)C(=O)/C=C/C(C)=C/[C@@H]1C`: the MIC turned out to be 4 µg/mL (≈ 6.85 µM) in assay [1]; 32 µg/mL (≈ 54.8 µM) in assay [2]; 16 µg/mL (≈ 27.4 µM) in assay [3]; 32 µg/mL (≈ 54.8 µM) in assay [4]; 16 µg/mL (≈ 27.4 µM) in assay [5]; 16 µg/mL (≈ 27.4 µM) in assay [6].
For the molecule `CC[C@H]1OC(=O)C[C@@H](O)[C@H](C)[C@@H](O[C@@H]2O[C@H](C)[C@@H](O[C@H]3C[C@@](C)(O)[C@@H](O)[C@H](C)O3)[C@H](N(C)C)[C@H]2O)[C@@H](CCOc2ncnc3ccccc23)C[C@@H](C)C(=O)/C=C/C(C)=C/[C@@H]1CO[C@@H]1O[C@H](C)[C@@H](O)[C@@H](OC)[C@H]1OC`, the MIC in assay [1] is 0.5 µg/mL (≈ 0.478 µM); in assay [2], more than 128 µg/mL; in assay [3] it was 4 µg/mL (≈ 3.82 µM); in assay [4], 32 µg/mL (≈ 30.6 µM); in assay [5], 1 µg/mL (≈ 0.956 µM); in assay [6] it was 4 µg/mL (≈ 3.82 µM).
`CC[C@H]1C[C@@H](C)C(=O)/C=C/C(C)=C/[C@H](CO)[C@@H](CC)OC(=O)C[C@@H](O)[C@H](C)[C@H]1O[C@@H]1O[C@H](C)[C@@H](O[C@H]2C[C@@](C)(O)[C@@H](O)[C@H](C)O2)[C@H](N(C)C)[C@H]1O`: the MIC in assay [1] was 128 µg/mL (≈ 176 µM); in assay [2], more than 128 µg/mL; in assay [3], more than 128 µg/mL; in assay [4], more than 128 µg/mL; in assay [5], 128 µg/mL (≈ 176 µM); in assay [6], more than 128 µg/mL.

The values above are taken from ChEMBL document CHEMBL1124186, “Synthesis and evaluation of tylosin-related macrolides modified at the aldehyde function: a new series of orally effective antibiotics” (1988).
